The values that follow come from EP4610269A1, “UROKINASE PLASMINOGEN ACTIVATOR SURFACE RECEPTOR (UPAR) LIGANDS FOR DIAGNOSTIC OR THERAPEUTIC USE” (3B Pharmaceuticals GmbH, priority 2024, dated 2025).

Where two headings read alike, the source gives them in different places. *1 amine or outer side, *2 acyl side, *3 side chain or, on linkers, in order; H or OH if unused. Where a SMILES comes first, the peptide text is derived from it. Bridges are numbered along the chain shown (N, C = ends). [ ]: non-standard residue; d: D form. The star is where a group is joined. DOTA = O=C(O)CN1CCN(CC(=O)O)CCN(CC(=O)*)CCN(CC(=O)O)CC1; NMeY = CN[C@@H](Cc1ccc(O)cc1)C(=O)O; Propanoyl(3-NMe2) = CN(C)CCC(=O)*; Hyp = O=C(O)[C@@H]1C[C@@H](O)CN1; Gly(cBu) = N[C@H](C(=O)O)C1CCC1; Pentanoyl(4-Me) = CC(C)CCC(=O)*; Cit = NC(=O)NCCC[C@H](N)C(=O)O; NMeNle = CCCC[C@H](NC)C(=O)O; dOrn = NCCC[C@@H](N)C(=O)O; Nle = CCCC[C@H](N)C(=O)O; dDap = NC[C@@H](N)C(=O)O; Nva = CCC[C@H](N)C(=O)O; Pentanoyl = CCCCC(=O)*; CO = O=C([*:1])[*:2]; X7 = CCCOCC(=O)*; NHBu = CCCCN*

In experiment [1] the target is T1, uPAR-expressing HEC-265 human endometrial adenocarcinoma cells (Homo sapiens, UniProt Q03405).
T1 construct: Cell surface uPAR-expressing HEC-265 human endometrial adenocarcinoma cells; host or cells: HEC-265
Kind of experiment: Competitive FACS binding assay. Conditions: pIC50 category of FACS binding. The method in brief:
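HEC-265 cells incubated 1 h at 4 °C with 10 nM biotinylated uPAR peptide tracer plus increasing test compound, then stained with APC-streptavidin on ice. Median APC fluorescence by flow cytometry; 4PL fit gives pIC50.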

Experiment [2] has as its target T2, human uPAR (uPAR-Fc) (Homo sapiens, UniProt Q03405).
T2 construct: comprising amino acids Leu23-Arg303 according to UniProt entry Q03405.1; purchased R&D Systems 10378-UK-100
The experiment in a line: Surface plasmon resonance (SPR) assay, single cycle kinetics. In kind it is binding. The following applies: pKD category for uPAR SPR activity assay, uPAR-Fc on Protein A-Chip, 25°C; for Kd: read-out: pKD CAT (converted). The method in brief: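 uPAR-Fc (Leu23-Arg303 extracellular domains, human IgG1 Fc) captured on Protein A chip to ~2000 RU; single-cycle kinetics at 25°C in HEPES running buffer pH 7.4 with 0.1% DMSO. KD from double-referenced sensorgrams fitted to 1:1 Langmuir model, reported as pKD.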
(In SPR one partner is held on a chip, and binding of the other changes the refractive index at the surface.)

The term IC50 denotes the concentration that gives 50% inhibition. Low values mean greater potency, high ones weaker potency.

T1 sequence (Q03405 23-335): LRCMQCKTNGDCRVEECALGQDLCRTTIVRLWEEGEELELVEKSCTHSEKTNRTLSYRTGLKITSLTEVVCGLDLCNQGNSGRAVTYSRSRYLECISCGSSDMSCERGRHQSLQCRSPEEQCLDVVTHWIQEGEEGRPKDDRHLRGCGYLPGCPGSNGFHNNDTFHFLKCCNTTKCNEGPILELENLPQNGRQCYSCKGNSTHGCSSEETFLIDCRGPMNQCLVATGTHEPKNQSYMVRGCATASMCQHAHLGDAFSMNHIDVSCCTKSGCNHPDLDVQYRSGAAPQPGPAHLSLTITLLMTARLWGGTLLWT
T2 sequence (Q03405 23-303): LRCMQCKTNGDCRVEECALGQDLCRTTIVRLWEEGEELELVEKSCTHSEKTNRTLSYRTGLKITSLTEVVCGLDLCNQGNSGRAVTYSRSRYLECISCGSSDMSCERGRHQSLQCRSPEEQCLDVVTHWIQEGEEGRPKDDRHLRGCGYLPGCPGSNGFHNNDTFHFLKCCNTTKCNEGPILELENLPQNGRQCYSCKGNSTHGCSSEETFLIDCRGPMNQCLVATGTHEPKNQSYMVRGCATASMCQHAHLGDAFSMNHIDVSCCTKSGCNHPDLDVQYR

With `CCCC[C@@H]1NC(=O)[C@H]([C@@H](C)CC)NC(=O)[C@@H](C)NC(=O)[C@@H]2CCCN2C(=O)[C@H](Cc2ccccc2)NC(=O)[C@H](Cc2ccc(O)cc2)NC(=O)[C@H](CCC(N)=O)NC(=O)[C@H](CCCNC(N)=O)NC(=O)[C@@H](NC(=O)CCC(C)C)CSSC[C@@H](C(N)=O)NC1=O` [UPAR-345, iHex-[Cys-Cit-Gln-Tyr-Phe-Pro-ala-Ile-Nle-Cys]-NH2] ({Pentanoyl(4-Me)}-C[Cit]QYFP[dA]I[Nle]C-NH2; disulfide 1-10), the 50% inhibitory concentration (IC50) in experiment [1] was ≤ 10 nM. Moreover, the Kd in experiment [2] (single cycle kinetics) is 1.58 to 10 nM.

In the case of `CCCCC(=O)N[C@H]1CSSC[C@@H](C(N)=O)NC(=O)[C@H](CCC)NC(=O)[C@H]([C@@H](C)CC)NC(=O)[C@@H]2C[C@@H](O)CN2C(=O)[C@@H]2CCCN2C(=O)[C@H](Cc2ccccc2)NC(=O)[C@H](Cc2ccc(O)cc2)NC(=O)[C@H](CCC(N)=O)NC(=O)[C@H](Cc2ccc(O)cc2)NC1=O` [UPAR-454, Pent-[Cys-Tyr-Gln-Tyr-Phe-Pro-Hyp-Ile-Nva-Cys]-NH2] (Pentanoyl-CYQYFP[Hyp]I[Nva]C-NH2; disulfide 1-10), the IC50 in experiment [1] was ≤ 10 nM. In experiment [2] (single cycle kinetics), the Kd was < 1.58 nM.

Take `CCCCC(=O)N[C@H]1CSSC[C@@H](C(N)=O)NC(=O)[C@H](CCC)NC(=O)[C@H]([C@@H](C)CC)NC(=O)[C@@H](Cc2ccc(O)cc2)NC(=O)[C@@H]2CCCN2C(=O)[C@H](Cc2ccccc2)NC(=O)[C@H](Cc2ccc(O)cc2)NC(=O)[C@H](CCC(N)=O)NC(=O)[C@H](CCCNC(=N)N)NC1=O` [UPAR-465, Pent-[Cys-Arg-Gln-Tyr-Phe-Pro-tyr-Ile-Nva-Cys]-NH2] (Pentanoyl-CRQYFP[dY]I[Nva]C-NH2; disulfide 1-10): in experiment [1], the IC50 was ≤ 10 nM. Also, the Kd in experiment [2] (single cycle kinetics) was < 1.58 nM.

In turn, `CCCOCC(=O)N[C@H]1CSSC[C@@H](C(N)=O)NC(=O)[C@H](CC(C)C)NC(=O)[C@H]([C@@H](C)CC)NC(=O)[C@@H](C)NC(=O)[C@@H]2CCCN2C(=O)[C@H](Cc2ccccc2)NC(=O)[C@H](Cc2ccc(O)cc2)NC(=O)[C@H](CCC(N)=O)NC(=O)[C@H](CCCNC(N)=O)NC1=O` [UPAR-212, PrOAc-[Cys-Cit-Gln-Tyr-Phe-Pro-ala-Ile-Leu-Cys]-NH2] (X7-C[Cit]QYFP[dA]ILC-NH2; disulfide 1-10) had an IC50 in experiment [1] of 12.6 to 31.6 nM. Besides, the Kd in experiment [2] was 10 to 100 nM.

Regarding `CCCCC(=O)N[C@H]1CSSC[C@@H](C(N)=O)NC(=O)[C@H](C2CCC2)NC(=O)[C@H]([C@@H](C)CC)NC(=O)[C@@H]2C[C@@H](O)CN2C(=O)[C@@H]2CCCN2C(=O)[C@H](Cc2ccccc2)NC(=O)[C@H](Cc2ccc(O)cc2)NC(=O)[C@H](CCC(N)=O)NC(=O)[C@H](CCCNC(=N)N)NC1=O` [UPAR-411, Pent-[Cys-Arg-Gln-Tyr-Phe-Pro-Hyp-Ile-Cbg-Cys]-NH2] (Pentanoyl-CRQYFP[Hyp]I[Gly(cBu)]C-NH2; disulfide 1-10), the half-maximal inhibitory concentration (IC50) in experiment [1] was ≤ 10 nM. In addition, the Kd in experiment [2] (single cycle kinetics) is < 1.58 nM.

In the case of `CC[C@H](C)[C@@H]1NC(=O)[C@H](C)NC(=O)[C@@H]2CCCN2C(=O)[C@H](Cc2ccccc2)NC(=O)[C@H](Cc2ccc(O)cc2)NC(=O)[C@H](CCC(N)=O)NC(=O)[C@H](CCCNC(=N)N)NC(=O)[C@@H](NC(=O)[C@H](CC(C)C)NC(=O)[C@H](CC(=O)O)NC(C)=O)CSSC[C@@H](C(N)=O)NC(=O)[C@H](CC(C)C)NC1=O` [UPAR-290, Ac-Asp-Leu-[Cys-Arg-Gln-Tyr-Phe-Pro-Ala-Ile-Leu-Cys]-NH2] (Ac-DLCRQYFPAILC-NH2; disulfide 3-12), the IC50 in experiment [1] was ≤ 10 nM. Also, the Kd in experiment [2] is < 1.58 nM.

`CCCCNC(=O)N[C@H]1CSSC[C@@H](C(N)=O)NC(=O)[C@H](CCC)NC(=O)[C@H]([C@@H](C)CC)NC(=O)[C@@H]2C[C@@H](O)CN2C(=O)[C@@H]2CCCN2C(=O)[C@H](Cc2ccccc2)NC(=O)[C@H](Cc2ccc(O)cc2)NC(=O)[C@H](CCCCNC(=O)CN2CCN(CC(=O)O)CCN(CC(=O)O)CCN(CC(=O)O)CC2)NC(=O)[C@H]([C@@H](C)O)NC1=O` [UPAR-242, nBuCAyl-[Cys-Thr-Lys(DOTA)-Tyr-Phe-Pro-Hyp-Ile-Nva-Cys]-NHz] ({NHBu-CO}-CTK(DOTA)YFP[Hyp]I[Nva]C-NH2; disulfide 1-10): the half-inhibitory concentration (IC50) in experiment [1] was ≤ 10 nM. In experiment [2], the Kd was < 1.58 nM.

Turning to `CCCC[C@@H]1NC(=O)[C@H](CCCNC(=N)N)NC(=O)[C@@H](NC(=O)[C@H](CC(C)C)NC(=O)[C@@H](CC(=O)O)NC(C)=O)CSSC[C@@H](C(N)=O)NC(=O)[C@H](CC(C)C)NC(=O)[C@H]([C@@H](C)CC)NC(=O)[C@H](C)NC(=O)[C@@H]2CCCN2C(=O)[C@H](Cc2ccccc2)NC(=O)[C@H](Cc2ccc(O)cc2)NC1=O` [UPAR-133, Ac-asp-Leu-[Cys-Arg-Nle-Tyr-Phe-Pro-Ala-Ile-Leu-Cys]-NH2] (Ac-[dD]LCR[Nle]YFPAILC-NH2; disulfide 3-12), in experiment [1], the IC50 is ≤ 10 nM. For the same compound, in experiment [2], the Kd is < 1.58 nM.

In experiment [1], `CC[C@H](C)[C@@H]1NC(=O)[C@@H](C)NC(=O)[C@@H]2CCCN2C(=O)[C@H](Cc2ccccc2)NC(=O)[C@H](Cc2ccc(O)cc2)NC(=O)[C@H](CCC(N)=O)NC(=O)[C@H](CCCNC(N)=O)NC(=O)[C@@H](NC(=O)CCN(C)C)CSSC[C@@H](C(N)=O)NC(=O)[C@H](CC(C)C)NC1=O` [UPAR-333, Dmba-[Cys-Cit-Gln-Tyr-Phe-Pro-ala-Ile-Leu-Cys]-NH2] ({Propanoyl(3-NMe2)}-C[Cit]QYFP[dA]ILC-NH2; disulfide 1-10) showed an IC50 of 39.8 to 100 nM. In addition, the Kd in experiment [2] is > 100 nM.

In the case of `CC[C@H](C)[C@@H]1NC(=O)[C@@H](C)NC(=O)[C@@H]2CCCN2C(=O)[C@H](Cc2ccccc2)NC(=O)[C@H](Cc2ccc(O)cc2)N(C)C(=O)[C@H](CCC(N)=O)NC(=O)[C@H](CCCNC(N)=O)NC(=O)[C@@H](NC(=O)CCC(C)C)CSSC[C@@H](C(N)=O)NC(=O)[C@H](CC(C)C)NC1=O` [UPAR-285, iHex-[Cys-Cit-Gln-Nmy-Phe-Pro-ala-Ile-Leu-Cys]-NH2] ({Pentanoyl(4-Me)}-C[Cit]Q[NMeY]FP[dA]ILC-NH2; disulfide 1-10), the IC50 in experiment [1] was ≥ 126 nM. Besides, the Kd in experiment [2] was > 100 nM.

Compound `CCCCC(=O)N[C@H]1CSSC[C@@H](C(N)=O)NC(=O)[C@H](Cc2ccccc2)NC(=O)[C@H]([C@@H](C)CC)NC(=O)[C@@H]2C[C@@H](O)CN2C(=O)[C@@H]2CCCN2C(=O)[C@H](Cc2ccccc2)NC(=O)[C@H](Cc2ccc(O)cc2)NC(=O)[C@H](CCC(N)=O)NC(=O)[C@H](CCCNC(=N)N)NC1=O` [UPAR-171, Pent-[Cys-Arg-Gln-Tyr-Phe-Pro-Hyp-Ile-Phe-Cys]-NH2] (Pentanoyl-CRQYFP[Hyp]IFC-NH2; disulfide 1-10) gave an IC50 in experiment [1] of 12.6 to 31.6 nM. For the same compound, in experiment [2], the Kd was 1.58 to 10 nM.

For `CCCCC(=O)N[C@H]1CSSC[C@@H](C(N)=O)NC(=O)[C@H](CCC)NC(=O)[C@H]([C@@H](C)CC)NC(=O)[C@@H]2C[C@@H](O)CN2C(=O)[C@H](CCCC)N(C)C(=O)[C@H](Cc2ccccc2)NC(=O)[C@H](Cc2ccc(O)cc2)NC(=O)[C@H](CCC(N)=O)NC(=O)[C@H](CCCNC(=N)N)NC1=O` [UPAR-337, Pent-[Cys-Arg-Gln-Tyr-Phe-Nmb-Hyp-Ile-Nva-Cys]-NH2] (Pentanoyl-CRQYF[NMeNle][Hyp]I[Nva]C-NH2; disulfide 1-10), the IC50 in experiment [1] is ≥ 126 nM. The Kd in experiment [2] was < 1.58 nM.

For the compound `CC[C@H](C)[C@@H]1NC(=O)[C@@H](C)NC(=O)[C@@H]2CCCN2C(=O)[C@H](Cc2ccccc2)NC(=O)[C@H](Cc2ccc(O)cc2)NC(=O)[C@H](C)NC(=O)[C@H](CCCNC(N)=O)NC(=O)[C@@H](NC(=O)CCC(C)C)CSSC[C@@H](C(N)=O)NC(=O)[C@H](CC(C)C)NC1=O` [UPAR-339, iHex-[Cys-Cit-Ala-Tyr-Phe-Pro-ala-Ile-Leu-Cys]-NH2] ({Pentanoyl(4-Me)}-C[Cit]AYFP[dA]ILC-NH2; disulfide 1-10), in experiment [1], the IC50 was ≤ 10 nM. The Kd in experiment [2] is 1.58 to 10 nM.

As for `CCCCC(=O)N[C@H]1CSSC[C@@H](C(N)=O)NC(=O)[C@H](CCC)NC(=O)[C@H]([C@@H](C)CC)NC(=O)[C@@H](CCCN)NC(=O)[C@@H]2CCCN2C(=O)[C@H](Cc2ccccc2)NC(=O)[C@H](Cc2ccc(O)cc2)NC(=O)[C@H](CCC(N)=O)NC(=O)[C@H](CCCNC(=N)N)NC1=O` [UPAR-438, Pent-[Cys-Arg-Gln-Tyr-Phe-Pro-orn-Ile-Nva-Cys]-NH2] (Pentanoyl-CRQYFP[dOrn]I[Nva]C-NH2; disulfide 1-10), in experiment [1], the IC50 was 12.6 to 31.6 nM. In addition, in experiment [2] (single cycle kinetics), the Kd is 1.58 to 10 nM.

With “Pent-[Cys-Cit-Lys(LuDOTA)-Guf-Phe-Pro-Hyp-Ile-Nva-Cys]-NH2 [UPAR-350]”, the “pIC50 CAT” value in experiment [1] is given as “A (pIC50 values ≥8.0)”. Moreover, in experiment [2] (single cycle kinetics), the “pKD CAT” value is given as “A (pKD values ≥ 8.8)”.

On to `CCCCC(=O)N[C@H]1CSSC[C@@H](C(N)=O)NC(=O)[C@H](CCC)NC(=O)[C@H]([C@@H](C)CC)NC(=O)[C@@H](CN)NC(=O)[C@@H]2CCCN2C(=O)[C@H](Cc2ccccc2)NC(=O)[C@H](Cc2ccc(O)cc2)NC(=O)[C@H](CCC(N)=O)NC(=O)[C@H](CCCNC(=N)N)NC1=O` [UPAR-330, Pent-[Cys-Arg-Gln-Tyr-Phe-Pro-dap-Ile-Nva-Cys]-NH2] (Pentanoyl-CRQYFP[dDap]I[Nva]C-NH2; disulfide 1-10), for which, in experiment [1], the IC50 is ≤ 10 nM. Besides, in experiment [2], the Kd is < 1.58 nM.
